{"source": "patent US20220400680A1", "about": "“USE OF ACYLCYANAMIDES OR SALTS THEREOF FOR REGULATING PLANT GROWTH” (Alzchem Trostberg GmbH, priority 2019, published 2022)", "key": {"[1]": {"system": "Table apple, type Zabergäu-Renette (C2)", "experiment": "Greenhouse test, cut apple branches C2 dipped in test solution, bud development stage", "type": "in vivo, Malus domestica", "design": "key to Bud development stage, apple branches C2: Stage 0: Buds unchanged; Stage 1: Buds slightly swollen, first green tips visible; Stage 2: strongly swollen, green buds; Stage 3: Buds before breaking open, leaf or flower root already visible; Stage 4: Flower buds fully developed, but still closed, white petals already visible. In the case of the grapevine, stage 4 was the unfolding of the first leaves; Stage 5: Flowers fully open or, in the case of grapevine, unfolding of the flower roots (“Gescheine”) on the fully leafed sprouts", "method_in_brief": "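Cut branches held in water jars in a greenhouse at about 22° C. under natural light after dipping in aqueous test solution: 0.15 mol substance (0.075 mol for bis-cyanamides) plus 0.15 g BreakThru OE-446 per 500 g. Bud development scored on a stage scale from closed buds to fully open flowers.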"}, "[2]": {"system": "table grapes type Red Globe", "experiment": "Field test E2 table grapes Spain, bud burst", "design": "species or system Vitis vinifera", "settings": "in vivo", "protocol": "Three sections of a table grape plantation in southern Spain (type Red Globe) were treated with the following spray mixtures during the dormancy phase 45 days before natural bud burst (February 5):\nE2-0: 600 liters per hectare of water with an addition of 0.1% Break-Thru® OE-446 E2-1: 600 liters per hectare of the spray mixture from example D-1 E2-18: 600 liters per hectare of the spray mixture from example D-18\nAs a result, the grapevine sprouts were evenly wetted.\nOn April 3, bud burst was recorded numerically.\nBudding means number of buds that have developed at least one leaf after n days, based on the total number of buds on the sprouts at time n=0 days (day of application of spray mixture)."}}}
{"smiles": "CC(=O)NC#N.[Na]", "note": "[Example A-1, Sodium Acetylcyanamide]", "values": [{"measurement": "Bud development stage, apple branches C2", "setting": "[1]; T1 (14 d), 0.15 mol (A-14, A-15: 0.075 mol) per 500 g solution", "value": 0}, {"measurement": "Bud development stage, apple branches C2", "setting": "[1]; T2 (16 d)", "value": 0}, {"measurement": "Bud development stage, apple branches C2", "setting": "[1]; T3 (21 d)", "value": 1}, {"measurement": "Bud development stage, apple branches C2", "setting": "[1]; T4 (27 d)", "value": 3}, {"measurement": "Bud development stage, apple branches C2", "setting": "[1]; T5 (36 d)", "value": 5}, {"measurement": "Bud development stage, apple branches C2", "setting": "[1]; T6 (56 d)", "value": 5}, {"measurement": "Dormancy-breaking effect according to the definition, apple C2", "setting": "[1]; stage 4 reached or exceeded after 36 days vs negative control", "value": "dormancy-breaking effect"}, {"measurement": "Effectiveness compared with prior art treatment with cyanamide", "setting": "[2]", "value": "as effective as the prior art treatment with cyanamide"}]}
